Results from patent US20200131159A1, “POSITIVE ALLOSTERIC MODULATORS OF THE MUSCARINIC ACETYLCHOLINE RECEPTOR M1” (Vanderbilt University, priority 2018, published 2020).

Molecular target: T1, human mAChR M1 (Homo sapiens, UniProt P11229)
T1 construct: hM1 and hM4 cDNAs were purchased from Missouri S&T cDNA Resource; host or cells: CHO-K1 cells, stably transfected with Lipofectamine2000
T1 sequence (P11229 1-460): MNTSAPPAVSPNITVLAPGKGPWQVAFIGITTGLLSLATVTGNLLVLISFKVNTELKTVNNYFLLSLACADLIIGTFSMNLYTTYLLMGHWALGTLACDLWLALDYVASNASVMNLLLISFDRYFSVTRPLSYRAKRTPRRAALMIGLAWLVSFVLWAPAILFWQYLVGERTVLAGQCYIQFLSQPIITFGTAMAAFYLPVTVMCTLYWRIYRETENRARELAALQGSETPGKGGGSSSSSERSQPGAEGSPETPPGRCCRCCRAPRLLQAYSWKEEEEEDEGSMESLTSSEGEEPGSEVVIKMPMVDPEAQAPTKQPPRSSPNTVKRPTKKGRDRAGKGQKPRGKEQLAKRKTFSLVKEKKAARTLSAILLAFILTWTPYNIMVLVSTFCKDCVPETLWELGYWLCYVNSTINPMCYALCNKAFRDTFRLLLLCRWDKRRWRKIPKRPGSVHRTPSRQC
Experiment: mAChR M1 cell-based functional assay (calcium mobilization, PAM mode, EC20 acetylcholine)
Settings: CHO-K1 cells expressing hM1, calcium flux (Fluo-4); for Emax: EC20 acetylcholine response; for EC50: concentration-dependent increase in the EC20 acetylcholine response
Description: Chinese hamster ovary (CHO-K1) cells stably expressing rat (r)M1 were purchased from the American Type Culture Collection and cultured according to their indicated protocol. CHO cells stably expressing human (h)M2, hM3, and hM5 were described previously (Levey, et al., 1991); hM1 and hM4 cDNAs were purchased from Missouri S&T cDNA Resource; rM4 cDNA was provided by T. I. Bonner (National Institutes of Health, Bethesda, Md.). rM2 and rM3 were cloned from a rat brain cDNA library and sequence verified. hM1, rM2, rM3, hM4, and rM4 cDNAs were used to stably transfect CHO-K1 cells purchased from the American Type Culture Collection using Lipofectamine2000. To make stable rM2, hM2, rM3, hM4, and rM4 cell lines for use in calcium mobilization assays, these cells also were stably transfected with a chimeric G-protein (Gqi5) (provided by B. R. Conklin, University of California, San Francisco) using Lipofectamine 2000. rM1, hM1, rM3, hM3, rM5, and hM5 cells were grown in Ham's F-12 medium containing 10% heat-inactivated fetal bovine serum (FBS), 20 mM HEPES, and 50 µg/mL G418 sulfate. rM2-Gqi5, hM2-Gqi5, and hM4-Gqi5 cells were grown in the same medium also containing 500 μg/mL Hygromycin B. Stable rM4-Gqi5 cells were grown in DMEM containing 10% heat-inactivated FBS, 20 mM HEPES, 400 μg/mL G418 sulfate, and 500 μg/mL Hygromycin B.
For high throughput measurement of agonist-evoked increases in intracellular calcium, CHO-K1 cells stably expressing muscarinic receptors were plated in growth medium lacking G418 and hygromycin at 15,000 cells/20 μL/well in Greiner 384-well black-walled, tissue culture (TC)-treated, clear-bottom plates (VWR). Cells were incubated overnight at 37° C. and 5% CO2. The next day, cells were washed using an ELX 405 (BioTek) with four washes (80 μL) of assay buffer then aspirated to 20 μL. Next, 20 μL of 16 μM Fluo-4/acetoxymethyl ester (Invitrogen, Carlsbad, Calif.) prepared as a 2.3 mM stock in DMSO and mixed in a 1:1 ratio with 10% (w/v) Pluronic F-127 and diluted in assay buffer was added to the wells and the cell plates were incubated for 50 min at 37° C. and 5% CO2. Dye was removed by washing with the ELX 405 (four 80 μL washes of assay buffer) then aspirated to 20 μL. Compound master plates were formatted in an 11 point CRC format (1:3 dilutions) in 100% DMSO with a starting concentration of 10 mM using the BRAVO liquid handler (Agilent). Test compound CRCs were then transferred to daughter plates (240 nL) using the Echo acoustic plate reformatter (Labcyte, Sunnyvale, Calif.) and then diluted into assay buffer (40 μL) to a 2× stock using a Thermo Fisher Combi (Thermo Fisher Scientific, Waltham, Mass.).
Calcium flux was measured using the Functional Drug Screening System (FDSS) 6000 (Hamamatsu Corporation, Tokyo, Japan) as an increase in the fluorescent static ratio. Compounds were applied to cells (20 μL, 2×) using the automated system of the FDSS 6000 at 4 s into the 300 s protocol and the data were collected at 1 Hz. […] Agonist activity was analyzed as a concentration-dependent increase in calcium mobilization upon compound addition. Emax values for agonist activity are expressed relative to the maximum for acetylcholine. Positive allosteric modulator activity was analyzed as a concentration-dependent increase in the EC20 acetylcholine response. Antagonist activity was analyzed as a concentration-dependent decrease in the […] acetylcholine response. Concentration-response curves were generated using a four-parameter logistical equation in XLfit curve fitting software (IDBS, Bridgewater, N.J.) for Excel (Microsoft, Redmond, Wash.) or Prism (GraphPad Software, Inc., San Diego, Calif.).
Activity (EC50 and Emax) was determined in the mAChR M1 cell-based functional assay as described above and the data are shown in Table 2. The compound numbers correspond to the compound numbers used in Table 1.

| SMILES | Emax | EC50 |
| --- | --- | --- |
| O=C(N[C@H]1CCOC[C@@H]1O)c1cc(Cc2ccc(-n3cccn3)cc2)cc2cccnc12 [compound 1, N-[(3R,4S)-3-hydroxytetrahydropyran-4-yl]-6-[(4-pyrazol-1-ylphenyl)methyl]quinoline-8-carboxamide] | 80% | 460 nM |
| O=C(N[C@H]1CCCC[C@@H]1O)c1cc(Cc2ccc(-n3cccn3)cc2)cc2cccnc12 [compound 2, N-[(1S,2S)-2-hydroxycyclohexyl]-6-[(4-pyrazol-1-ylphenyl)methyl]quinoline-8-carboxamide] | 81% | 1000 nM |
| O=C(NC1CCOCC1)c1cc(Cc2ccc(-n3cccn3)cc2)cc2cccnc12 [compound 3, 6-[(4-pyrazol-1-ylphenyl)methyl]-N-tetrahydropyran-4-yl-quinoline-8-carboxamide] | 45% | 2980 nM |
| O=C(NC1CC2(COC2)C1)c1cc(Cc2ccc(-n3cccn3)cc2)cc2cccnc12 [compound 4, N-(2-oxaspiro[3.3]heptan-6-yl)-6-[(4-pyrazol-1-ylphenyl)methyl]quinoline-8-carboxamide] | 67% | 6030 nM |
| O=C(N[C@H]1CCC[C@@H]1O)c1cc(Cc2ccc(-n3cccn3)cc2)cc2cccnc12 [compound 5, N-[(1S,2S)-2-hydroxycyclopentyl]-6-[(4-pyrazol-1-ylphenyl)methyl]quinoline-8-carboxamide] | 76% | 1660 nM |
| O=C(N[C@H]1CC[C@@H]1O)c1cc(Cc2ccc(-n3cccn3)cc2)cc2cccnc12 [compound 6, N-[(1S,2S)-2-hydroxycyclobutyl]-6-[(4-pyrazol-1-ylphenyl)methyl]quinoline-8-carboxamide] | 57% | 5490 nM |
| O=C(N[C@H]1CCCCC[C@@H]1O)c1cc(Cc2ccc(-n3cccn3)cc2)cc2cccnc12 [compound 7, N-[(1S,2S)-2-hydroxycycloheptyl]-6-[(4-pyrazol-1-ylphenyl)methyl]quinoline-8-carboxamide] | 87% | 2030 nM |
| O=C(NCC1CCOCC1)c1cc(Cc2ccc(-n3cccn3)cc2)cc2cccnc12 [compound 8, 6-[(4-pyrazol-1-ylphenyl)methyl]-N-(tetrahydropyran-4-ylmethyl)quinoline-8-carboxamide] | 49% | 8160 nM |

Results, then the compound that gave them:

| Emax | EC50 | SMILES |
| --- | --- | --- |
| 79% | 308 nM | Cn1ccc(-c2ccc(Cc3cc(C(=O)N[C@H]4CCOC[C@@H]4O)c4ncccc4c3)cn2)n1 [compound 9, N-[(3R,4S)-3-hydroxytetrahydropyran-4-yl]-6-[[6-(1-methylpyrazol-3-yl)-3-pyridyl]methyl]quinoline-8-carboxamide] |
| 84% | 922 nM | Cn1ccc(-c2ccc(Cc3cc(C(=O)N[C@H]4CCCCC[C@@H]4O)c4ncccc4c3)cn2)n1 [compound 10, N-[(1S,2S)-2-hydroxycycloheptyl]-6-[[6-(1-methylpyrazol-3-yl)-3-pyridyl]methyl]quinoline-8-carboxamide] |
| 82% | 384 nM | Cn1ccc(-c2ccc(Cc3cc(C(=O)N[C@H]4CCCC[C@@H]4O)c4ncccc4c3)cn2)n1 [compound 11, N-[(1S,2S)-2-hydroxycyclohexyl]-6-[[6-(1-methylpyrazol-3-yl)-3-pyridyl]methyl]quinoline-8-carboxamide] |
| 82% | 1390 nM | Cn1ccc(-c2ccc(Cc3cc(C(=O)N[C@H]4CCC[C@@H]4O)c4ncccc4c3)cn2)n1 [compound 12, N-[(1S,2S)-2-hydroxycyclopentyl]-6-[[6-(1-methylpyrazol-3-yl)-3-pyridyl]methyl]quinoline-8-carboxamide] |
| 75% | – | Cn1ccc(-c2ccc(Cc3cc(C(=O)N[C@H]4CC[C@@H]4O)c4ncccc4c3)cn2)n1 [compound 13, N-[(1S,2S)-2-hydroxycyclobutyl]-6-[[6-(1-methylpyrazol-3-yl)-3-pyridyl]methyl]quinoline-8-carboxamide] |
